Assay results from patent US20090124501A1, “Silicic Acid Componenet Supplying Agent For Algae And Method For Supplying Silicic Acid Component To Algae” (Incorporated Administrative Agency Fisheries Research Agency, priority 2006, published 2009).

System: Chaetoceros
Experiment: Pigment and chlorophyll a content of Chaetoceros cultured for 20 days
Format: cell-based
Procedure: With respect to Chaetoceros cultured for 20 days after the silicic acid hydrogel and sodium metasilicate were added in an experimental plot and a control plot, respectively, under the same conditions as in Embodiment 3, difference in pigment and chlorophyll a content were examined. 20 mL of culture solution was collected from each of the experimental plot and the control plot, each cell density was measured, and only the cells were collected by suction filtration with a GF/F filter having a diameter of 47 mm (Whatman International Ltd.). Chlorophyll a was measured by a fluorescence method with a fluorometer (Turner Designs, Inc.) or by a measurement method with a spectrophotometer (Shimadzu Corporation).

O=[Si]([O-])[O-].[Na+].[Na+] [sodium metasilicate]
chlorophyll a content (Chaetoceros cultured for 20 days): 0.12-0.16 pg/cell
color of Chaetoceros collected on the filters, visual observation (after culturing for 20 days, GF/F filter): light brown color
